Toxic doses and inconclusive results are not listed.
System: P388 leukemia ip, CD2F1 mice, survival T/C
Assay: NCI In Vivo Anticancer Drug Screen. Data for tumor model P388 Leukemia (intraperitoneal) in CD2F1 (CDF1) mice
Conditions: endpoint: median survival time, higher = longer survival
Method in brief: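 Mice carrying the transplanted tumor received test compound or vehicle. Survival was recorded in each group, and the value is the treated-group measurement divided by that of the vehicle-treated control group.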

## COc1ccc(C2=C(c3ccccc3)C(C)(C)Oc3ccc4ccccc4c32)cc1
dose: 50.0 mg/kg/injection, schedule: Q01DX005 (ip), vehicle: Klucel (hydroxypropylcellulose) (HPC)
  T/C: 95 % of control
dose: 100.0 mg/kg/injection, schedule: Q01DX005 (ip), vehicle: Klucel (hydroxypropylcellulose) (HPC)
  T/C: 95 % of control
dose: 200.0 mg/kg/injection, schedule: Q01DX005 (ip), vehicle: Klucel (hydroxypropylcellulose) (HPC)
  T/C: 104 % of control

## O=C(O)CC1(C(=O)O)CCC(O)CC1 (stereo unspecified)
dose: 50.0 mg/kg/injection, schedule: Q01DX009 (ip), vehicle: saline
  T/C: 100 % of control
dose: 100.0 mg/kg/injection, schedule: Q01DX009 (ip), vehicle: saline
  T/C: 107 % of control
dose: 200.0 mg/kg/injection, schedule: Q01DX009 (ip), vehicle: saline
  T/C: 100 % of control

## CCOC(=O)C(C#N)(CCC(=NC(C)(C)C)Nc1ccccc1C#N)CCC(=NC(C)(C)C)Nc1ccccc1C#N (stereo unspecified)
dose: 50.0 mg/kg/injection, schedule: Q01DX009 (ip), vehicle: saline with Tween-80
  T/C: 100 % of control
dose: 100.0 mg/kg/injection, schedule: Q01DX009 (ip), vehicle: saline with Tween-80
  T/C: 94 % of control

## COc1cc(C2C(C)=C(C)Oc3cc4c(cc32)OCO4)cc(OC)c1OC (stereo unspecified)
dose: 60.0 mg/kg/injection, schedule: Q01DX005 (ip), vehicle: saline with Tween-80
  T/C: 97 % of control
dose: 120.0 mg/kg/injection, schedule: Q01DX005 (ip), vehicle: saline with Tween-80
  T/C: 91 % of control
dose: 240.0 mg/kg/injection, schedule: Q01DX005 (ip), vehicle: saline with Tween-80
  T/C: 88 % of control

Source: PubChem BioAssay AID330 (DTP/NCI, 2004)
